# Read-outs that look alike come from different tables or passages of the source.
# What was measured:
# [1] = test system: RF strain of HIV (CEM-SS cells); assay: Cell Culture Anti-HIV Activity (cell viability, formazan); format: cell-based; settings: CEM-SS cells, RF strain of HIV, multiplicity of infection 0.04, 6 days at 37° C., 450 nm, read-out: HIV (CEM Cells) IC50
# In short: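 Half-log compound dilutions added to CEM-SS cells (5000/well) carrying HIV RF (MOI 0.04), 6 days, 37° C. Cell protection measured as formazan from tetrazolium, A450. IC50: drug level restoring infected-cell formazan to 50% of the uninfected untreated control.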
# HIV protease = molecular target: T1, HIV protease (Human immunodeficiency virus type 1 group M subtype B, UniProt P04585); assay: HIV Protease Assay; format: biochemical
# T1 construct: and purified protease
# In short: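 At a single final concentration of 10 μM (4% DMSO), inhibitors were added to a 30-minute, 37° C reaction of purified enzyme with 450 μM H2N-Val-Ser-Gln-Asn-(β-naphthyl-alanine)-Pro-Val-Ile-OH at pH 5.5 (sodium acetate, BSA). Hydrolysis was quantified by reverse-phase HPLC with 220 nm detection after acid quench.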
# [2] = Human immunodeficiency virus 1, CEM-SS, 144 h
# [3] = pH 5.5, 10 μM inhibitor, 4% DMSO, 450 μM substrate, pH 5.5, 30 minutes at 37° C., RP-HPLC, read-out: HIV Protease % Inhibition at 10 μM
Structure (SMILES),"HIV Protease % Inhibition at 10 μM (HIV protease; 10 μM inhibitor, 4% DMSO, 450 μM substrate, pH 5.5, 30 minutes at 37° C., RP-HPLC) [%]",inhibition at 10 µM (HIV protease; [3]) [%],"inhibition at 10 µM (HIV protease; pH 5.5, read-out: HIV Protease % Inhibition at 10 μM) [%]",IC50 [1] [nM],"IC50 [1, 2] [nM]"
"CC(C)(C)OC(=O)N[C@@H](Cc1ccccc1)[C@H](O)CNC[C@@H](O)[C@H](Cc1ccccc1)NC(=O)C(NC(=O)OCc1ccccc1)C(C)(C)CO (single isomer, unassigned; isomer b) [Compound 309, [1S-[1R*,2S*(2S*, 3R*)]]-[1-[[[3-[[(1,1-Dimethylethoxy)carbonyl]amino]-2-hydroxy-4-phenylbutyl]amino]-2-hydroxy-1-(phenylmethyl)-propyl]amino]carbonyl]-2-(hydroxymethyl)-2-methylpropyl]carbamic acid, phenylmethyl ester. isomer B]",100,,,1800,
"CC(C)(C)OC(=O)N[C@@H](Cc1ccccc1)[C@H](O)CNC[C@@H](O)[C@H](Cc1ccccc1)NC(=O)[C@@H](NC(=O)OCc1cnc2ccccc2n1)C(C)(C)C [Compound 311, [S-[1R*,2S*(2S*,3R*)]]-[2.2-Dimethyl-1-[[[3-[[(1,1-dimethylethoxy)carbonyl]amino]-2-hydroxy-4-phenylbutyl]amino]-2-hydroxy-1-(phenylmethyl)-propyl]aminocarbonyl]propyl]carbamic acid, (2-quinoxalinyl)methyl ester]",,100,,,50
"CC(C)[C@H](NC(=O)OCc1ccccc1)C(=O)N[C@@H](Cc1ccccc1)[C@H](O)CNC[C@@H](O)[C@H](Cc1ccccc1)NC(=O)OC(C)(C)C [Compound 52, [S-[1R*,2S*(2S*, 3R*)]-N-[3-[[3-[[(1,1-Dimethylethoxy)carbonyl]amino]-2-hydroxy-4-phenylbutyl]-amino]-2-hydroxy-1-(phenylmethyl)propyl-N^2-[(phenylmethoxy)carbonyl]-L-valinamide]",,100,,,200

# Further lines, with some results ahead:
"HIV Protease % Inhibition at 10 μM (HIV protease; 10 μM inhibitor, 4% DMSO, 450 μM substrate, pH 5.5, 30 minutes at 37° C., RP-HPLC) [%]",inhibition at 10 µM (HIV protease; [3]) [%],"inhibition at 10 µM (HIV protease; pH 5.5, read-out: HIV Protease % Inhibition at 10 μM) [%]",Structure (SMILES),IC50 [1] [nM],"IC50 [1, 2] [nM]"
,100,,"CC(C)(C)OC(=O)N[C@@H](Cc1ccccc1)[C@H](O)CNC[C@@H](O)[C@H](Cc1ccccc1)NC(=O)OC1CCCOC1 (stereo partly drawn) [Compound 318, [1S-(1R*,2S*)]-[Iminobis[2-hydroxy-1-(phenylmethyl)-3,1-propanediyl)]bis[carbamic acid], 1,1-dimethylethyl-3-tetrahydropyranyl ester]",,100
,81,,"CC(C)(C)NC(=O)N[C@@H](Cc1ccccc1)[C@H](O)CNC[C@@H](O)[C@H](Cc1ccccc1)NC(=O)NC(C)(C)C [Compound 47, [R-(R*,S*)]-N,N""-[Iminobis[2-hydroxy-1-(phenylmethyl)-3,1-propanediyl]]-bis[N'-(1,1-dimethylethyl)urea]]",,1100
,,78,"CC(C)(C)CC(=O)N[C@@H](Cc1ccccc1)[C@H](O)CNC[C@@H](O)[C@H](Cc1ccccc1)NC(=O)OC(C)(C)C [Compound 60, [1S-[1R*,2S*(2S*,3R*)]]-[3 [[3-[(3,3-Dimethyl-1-oxybutyl)amino]-2-hydroxy-4-phenylbutyl]amino]-2-hydroxy-1-(phenylmethyl)-propyl]carbamic acid, 1,1-dimethylethyl ester]",,1200
,92,,"CC(C)(C)OC(=O)N[C@@H](Cc1ccccc1)[C@H](O)CNC[C@@H](O)[C@H](Cc1ccccc1)NC(=O)OC[C@@H](O)CO [Compound 230, [1S-(1R*,2S*),(R*)]-[Iminobis[2-hydroxy-1-(phenylmethyl)-3,1-propanediyl]]biscarbamic acid, 2,3-dihydroxypropyl 1,1-dimethylethyl ester]",,4900
,99,,"CC(C)(C)OC(=O)N[C@@H](Cc1ccccc1)[C@H](O)CNC[C@@H](O)[C@H](Cc1ccccc1)NC(=O)OC(C)(C)CF [Compound 252, [1S-(1R*,2S*)]-[Iminobis[2-hydroxy-1-(phenylmethyl)-3,1-propanediyl]]biscarbamic acid 2-fluoro-1,1-dimethylethyl 1,1-dimethylethyl ester]",,60
